Experimental data from patent US9321764B2, “Dihydro-pyrrolopyridinone inhibitors” (AbbVie Inc., priority 2013, dated 2016).

Columns and labels:
[1] = system: breast cancer cell line MX-1; experiment: MX-1 cell line proliferation assay; assay type: cell-based; conditions: Homo sapiens, MX1, 72 h, MX-1 cells, 3-day proliferation assay, Cell Titer Glo; read-out: Cellular proliferation EC50
Method: The impact of compounds of the Examples on cancer cell proliferation was determined using the breast cancer cell line MX-1 (ATCC) in a 3-day proliferation assay and the data are reported in Table 1. MX-1 cells were maintained in RPMI 1640 medium (Sigma) supplemented with 10% FBS at 37° C. and an atmosphere of 5% CO2. For compound testing, MX-1 cells were plated in 96-well black bottom plates at a density of 5000 cells/well in 90 μL of culture media and incubated at 37° overnight to allow cell adhesion and spreading. Compound dilution series were prepared in DMSO via a 3-fold serial dilution from 3 mM to 0.1 μM. The DMSO dilution series were then diluted 1:100 in phosphate buffered saline, and 10 μL of the resulted solution were added to the appropriate wells of the MX-1 cell plate. The final compound concentrations in the wells were 3, 1, 0.3, 0.1, 0.03, 0.01, 0.003, 0.001, 0.0003 and 0.0001 μM.
Luminescence readings from the Cell Titer Glo assay were normalized to the DMSO treated cells and analyzed using the GraphPad Prism software with sigmoidal curve fitting to obtain EC50s. The minimum significant ratio (MSR) was determined to evaluate assay reproducibility (Eastwood et al., (2006) J Biomol Screen, 11: 253-261).

BRD4 (BDII_E352-M457) = target: T1, BRD4 (BDII_E352-M457) (Homo sapiens, UniProt O60885); experiment: TR-FRET bromodomain binding assay, second bromodomain of BRD4; conditions: His-tagged BD2, 30 nM Alexa647 probe; TR-FRET protocol A-E given per row
T1 construct: proliferation; Protocol; made in house
How it was run: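 His-tagged BRD4 BD2 ([…]) competed against an Alexa647-labelled BET-inhibitor probe in TR-FRET. Buffer was 20 mM sodium phosphate pH 6.0, 50 mM NaCl, 1 mM EDTA, 0.01% Triton X-100, 1 mM DTT, with method D DMSO series of 2.5 mM–800 nM (stock range). IC50 from 4-parameter fit, Ki from probe Kd and concentration.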

BRD4 (BDI_K57-E168) = target: T2, BRD4 (BDI_K57-E168) (Homo sapiens, UniProt O60885); experiment: TR-FRET bromodomain binding assay, first bromodomain of BRD4; conditions: His-tagged BD1, 100 nM Alexa647 probe; TR-FRET protocol A-E given per row
T2 construct: BD1: amino acids K57-E168; made in house
How it was run: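 His-tagged BRD4 BD1 (K57-E168), 8 nM, with 1 nM Eu-anti-His antibody and 100 nM Alexa647-labelled BET-inhibitor probe in pH 6.0 phosphate buffer, 2% DMSO. TR-FRET read after 1 h at room temperature. IC50 from 4-parameter fit, converted to Ki using probe Kd and concentration.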

CCS(=O)(=O)c1ccc(Oc2ccc(F)cc2F)c(-c2cn(C)c3c(=O)[nH]ccc23)c1 [Example 49, 3-[2-(2,4-difluorophenoxy)-5-(ethylsulfonyl)phenyl]-1-methyl-1,6-dihydro-7H-pyrrolo[2,3-c]pyridin-7-one]
EC50 [1]: 52 nM | Ki (BRD4 (BDII_E352-M457)): 24 nM | Ki (BRD4 (BDI_K57-E168)): 13 nM

Cn1cc(-c2cc(S(N)(=O)=O)ccc2Oc2ccc(F)cc2F)c2cc[nH]c(=O)c21 [Example 51, 4-(2,4-difluorophenoxy)-3-(1-methyl-7-oxo-6,7-dihydro-1H-pyrrolo[2,3-c]pyridin-3-yl)benzenesulfonamide]
EC50 [1]: 201 nM | Ki (BRD4 (BDII_E352-M457)): 62 nM | Ki (BRD4 (BDI_K57-E168)): 47 nM

CCS(=O)(=O)C(C)(C)c1ccc(Oc2ccc(F)cc2F)c(-c2cn(C)c3c(=O)[nH]ccc23)c1 [Example 54, 3-{2-(2,4-difluorophenoxy)-5-[2-(ethylsulfonyl)propan-2-yl]phenyl}-1-methyl-1,6-dihydro-7H-pyrrolo[2,3-c]pyridin-7-one]
EC50 [1]: 21 nM | Ki (BRD4 (BDII_E352-M457)): 26 nM | Ki (BRD4 (BDI_K57-E168)): 3.4 nM

CCS(=O)(=O)C(C)c1ccc(Oc2ccc(F)cc2F)c(-c2cn(C)c3c(=O)[nH]ccc23)c1 (stereo not drawn) [Example 55, 3-{2-(2,4-difluorophenoxy)-5-[1-(ethylsulfonyl)ethyl]phenyl}-1-methyl-1,6-dihydro-7H-pyrrolo[2,3-c]pyridin-7-one]
EC50 [1]: 29 nM | Ki (BRD4 (BDII_E352-M457)): 9.9 nM | Ki (BRD4 (BDI_K57-E168)): 4.2 nM

Cn1cc(-c2cc(CS(=O)(=O)c3ccccc3)ccc2Oc2ccc(F)cc2F)c2cc[nH]c(=O)c21 [Example 58, 3-{2-(2,4-difluorophenoxy)-5-[(phenylsulfonyl)methyl]phenyl}-1-methyl-1,6-dihydro-7H-pyrrolo[2,3-c]pyridin-7-one]
EC50 [1]: 57 nM | Ki (BRD4 (BDII_E352-M457)): 88 nM | Ki (BRD4 (BDI_K57-E168)): 72 nM

Cn1cc(-c2cc(S(C)(=O)=O)ccc2Oc2ccc(F)cc2)c2cc[nH]c(=O)c21 [Example 61, 3-[2-(4-fluorophenoxy)-5-(methylsulfonyl)phenyl]-1-methyl-1,6-dihydro-7H-pyrrolo[2,3-c]pyridin-7-one]
EC50 [1]: 125 nM | Ki (BRD4 (BDII_E352-M457)): 43 nM | Ki (BRD4 (BDI_K57-E168)): 18 nM

Cn1cc(-c2cc(S(C)(=O)=O)ccc2Oc2ccc3ccccc3c2)c2cc[nH]c(=O)c21 [Example 63, 1-methyl-3-[5-(methylsulfonyl)-2-(naphthalen-2-yloxy)phenyl]-1,6-dihydro-7H-pyrrolo[2,3-c]pyridin-7-one]
EC50 [1]: 187 nM | Ki (BRD4 (BDII_E352-M457)): 66 nM | Ki (BRD4 (BDI_K57-E168)): 74 nM

Cn1cc(-c2cc(S(C)(=O)=O)ccc2OCC(F)(F)C(F)(F)F)c2cc[nH]c(=O)c21 [Example 64, 1-methyl-3-[5-(methylsulfonyl)-2-(2,2,3,3,3-pentafluoropropoxy)phenyl]-1,6-dihydro-7H-pyrrolo[2,3-c]pyridin-7-one]
EC50 [1]: 84 nM | Ki (BRD4 (BDII_E352-M457)): 57 nM | Ki (BRD4 (BDI_K57-E168)): 36 nM

CC(=O)N1CCC(Oc2ccc(S(C)(=O)=O)cc2-c2cn(C)c3c(=O)[nH]ccc23)CC1 [Example 67, 3-{2-[(1-acetylpiperidin-4-yl)oxy]-5-(methylsulfonyl)phenyl}-1-methyl-1,6-dihydro-7H-pyrrolo[2,3-c]pyridin-7-one]
EC50 [1]: > 3000 nM | Ki (BRD4 (BDII_E352-M457)): 1380 nM | Ki (BRD4 (BDI_K57-E168)): 45 nM

Cn1cc(-c2cc(S(C)(=O)=O)ccc2NCC2CCCC2)c2cc[nH]c(=O)c21 [Example 68, 3-{2-[(cyclopentylmethyl)amino]-5-(methylsulfonyl)phenyl}-1-methyl-1,6-dihydro-7H-pyrrolo[2,3-c]pyridin-7-one]
EC50 [1]: 38 nM | Ki (BRD4 (BDII_E352-M457)): 124 nM | Ki (BRD4 (BDI_K57-E168)): 103 nM

Cn1cc(-c2cc(S(C)(=O)=O)ccc2NCC2C[C@@H]3CC[C@H]2C3)c2cc[nH]c(=O)c21 (stereo partly drawn) [Example 71, 3-[2-{[(1S,4R)-bicyclo[2.2.1]hept-2-ylmethyl]amino}-5-(methylsulfonyl)phenyl]-1-methyl-1,6-dihydro-7H-pyrrolo[2,3-c]pyridin-7-one]
EC50 [1]: 255 nM | Ki (BRD4 (BDII_E352-M457)): 285 nM | Ki (BRD4 (BDI_K57-E168)): 197 nM

CCS(=O)(=O)c1ccc(Oc2ccc(C)cc2Cl)c(-c2cn(C)c3c(=O)[nH]ccc23)c1 [Example 73, 3-[2-(2-chloro-4-methylphenoxy)-5-(ethylsulfonyl)phenyl]-1-methyl-1,6-dihydro-7H-pyrrolo[2,3-c]pyridin-7-one]
EC50 [1]: 194 nM | Ki (BRD4 (BDII_E352-M457)): 21 nM | Ki (BRD4 (BDI_K57-E168)): 43 nM

CCS(=O)(=O)c1ccc(Oc2ccc(C#N)cc2)c(-c2cn(C)c3c(=O)[nH]ccc23)c1 [Example 78, 4-[4-(ethylsulfonyl)-2-(1-methyl-7-oxo-6,7-dihydro-1H-pyrrolo[2,3-c]pyridin-3-yl)phenoxy]benzonitrile]
EC50 [1]: 88 nM | Ki (BRD4 (BDII_E352-M457)): 73 nM | Ki (BRD4 (BDI_K57-E168)): 20 nM

CCS(=O)(=O)c1ccc(Oc2ccccc2C#N)c(-c2cn(C)c3c(=O)[nH]ccc23)c1 [Example 83, 2-[4-(ethylsulfonyl)-2-(1-methyl-7-oxo-6,7-dihydro-1H-pyrrolo[2,3-c]pyridin-3-yl)phenoxy]benzonitrile]
EC50 [1]: 100 nM | Ki (BRD4 (BDII_E352-M457)): 46 nM | Ki (BRD4 (BDI_K57-E168)): 43 nM

CCS(=O)(=O)c1ccc(Oc2c(C)nn(C)c2C)c(-c2cn(C)c3c(=O)[nH]ccc23)c1 [Example 90, 3-{5-(ethylsulfonyl)-2-[(1,3,5-trimethyl-1H-pyrazol-4-yl)oxy]phenyl}-1-methyl-1,6-dihydro-7H-pyrrolo[2,3-c]pyridin-7-one]
EC50 [1]: 96 nM | Ki (BRD4 (BDII_E352-M457)): 39 nM | Ki (BRD4 (BDI_K57-E168)): 54 nM

Cn1cc(-c2cc(CS(C)(=O)=O)ccc2Oc2ccc(F)cc2F)c2cc(Cl)[nH]c(=O)c21 [Example 91, 5-chloro-3-{2-(2,4-difluorophenoxy)-5-[(methylsulfonyl)methyl]phenyl}-1-methyl-1,6-dihydro-7H-pyrrolo[2,3-c]pyridin-7-one]
EC50 [1]: 8 nM | Ki (BRD4 (BDII_E352-M457)): 9.5 nM | Ki (BRD4 (BDI_K57-E168)): 5.4 nM

CCc1cc2c(-c3cc(CS(C)(=O)=O)ccc3Oc3ccc(F)cc3F)cn(C)c2c(=O)[nH]1 [Example 92, 3-{2-(2,4-difluorophenoxy)-5-[(methylsulfonyl)methyl]phenyl}-5-ethyl-1-methyl-1,6-dihydro-7H-pyrrolo[2,3-c]pyridin-7-one]
EC50 [1]: 8 nM | Ki (BRD4 (BDII_E352-M457)): 1.8 nM | Ki (BRD4 (BDI_K57-E168)): 1.7 nM

Cn1cc(-c2cc(CS(=O)(=O)N3CCOCC3)ccc2Oc2ccc(F)cc2F)c2cc[nH]c(=O)c21 [Example 95, 3-{2-(2,4-difluorophenoxy)-5-[(morpholin-4-ylsulfonyl)methyl]phenyl}-1-methyl-1,6-dihydro-7H-pyrrolo[2,3-c]pyridin-7-one]
EC50 [1]: 8 nM | Ki (BRD4 (BDII_E352-M457)): 2.1 nM | Ki (BRD4 (BDI_K57-E168)): 4.2 nM

Cn1cc(-c2cc(CS(N)(=O)=O)ccc2Oc2ccc(F)cc2F)c2cc[nH]c(=O)c21 [Example 96, 1-[4-(2,4-difluorophenoxy)-3-(1-methyl-7-oxo-6,7-dihydro-1H-pyrrolo[2,3-c]pyridin-3-yl)phenyl]methanesulfonamide]
EC50 [1]: 15 nM | Ki (BRD4 (BDII_E352-M457)): 11 nM | Ki (BRD4 (BDI_K57-E168)): 6.9 nM

Cn1cc(-c2cc(S(=O)(=O)N3CCc4ccccc43)ccc2OCC2CC2)c2cc[nH]c(=O)c21 [Example 97, 3-[2-(cyclopropylmethoxy)-5-(2,3-dihydro-1H-indol-1-ylsulfonyl)phenyl]-1-methyl-1,6-dihydro-7H-pyrrolo[2,3-c]pyridin-7-one]
EC50 [1]: 398 nM | Ki (BRD4 (BDII_E352-M457)): 81 nM | Ki (BRD4 (BDI_K57-E168)): 158 nM

CNS(=O)(=O)Cc1ccc(Oc2ccc(F)cc2F)c(-c2cn(C)c3c(=O)[nH]ccc23)c1 [Example 100, 1-[4-(2,4-difluorophenoxy)-3-(1-methyl-7-oxo-6,7-dihydro-1H-pyrrolo[2,3-c]pyridin-3-yl)phenyl]-N-methylmethanesulfonamide]
EC50 [1]: 9 nM | Ki (BRD4 (BDII_E352-M457)): 4.8 nM | Ki (BRD4 (BDI_K57-E168)): 4.1 nM

CN(C)S(=O)(=O)Cc1ccc(Oc2ccc(F)cc2F)c(-c2cn(C)c3c(=O)[nH]ccc23)c1 [Example 101, 1-[4-(2,4-difluorophenoxy)-3-(1-methyl-7-oxo-6,7-dihydro-1H-pyrrolo[2,3-c]pyridin-3-yl)phenyl]-N,N-dimethylmethanesulfonamide]
EC50 [1]: 5 nM | Ki (BRD4 (BDII_E352-M457)): 2.5 nM | Ki (BRD4 (BDI_K57-E168)): 2.2 nM

Cn1cc(-c2cc(CS(=O)(=O)NC3CCCCC3)ccc2Oc2ccc(F)cc2F)c2cc[nH]c(=O)c21 [Example 102, N-cyclohexyl-1-[4-(2,4-difluorophenoxy)-3-(1-methyl-7-oxo-6,7-dihydro-1H-pyrrolo[2,3-c]pyridin-3-yl)phenyl]methanesulfonamide]
EC50 [1]: 739 nM | Ki (BRD4 (BDII_E352-M457)): 81 nM | Ki (BRD4 (BDI_K57-E168)): 95 nM
